Results on 6 compounds are retold here after ChEMBL document CHEMBL1817617, “Novel macrocyclic C-aryl glucoside SGLT2 inhibitors as potential antidiabetic agents” (Bioorg Med Chem, 2011).

Experiment [1] addresses T1, Sodium/glucose cotransporter 2 (Homo sapiens, UniProt P31639).
T1 sequence (P31639 whole entry): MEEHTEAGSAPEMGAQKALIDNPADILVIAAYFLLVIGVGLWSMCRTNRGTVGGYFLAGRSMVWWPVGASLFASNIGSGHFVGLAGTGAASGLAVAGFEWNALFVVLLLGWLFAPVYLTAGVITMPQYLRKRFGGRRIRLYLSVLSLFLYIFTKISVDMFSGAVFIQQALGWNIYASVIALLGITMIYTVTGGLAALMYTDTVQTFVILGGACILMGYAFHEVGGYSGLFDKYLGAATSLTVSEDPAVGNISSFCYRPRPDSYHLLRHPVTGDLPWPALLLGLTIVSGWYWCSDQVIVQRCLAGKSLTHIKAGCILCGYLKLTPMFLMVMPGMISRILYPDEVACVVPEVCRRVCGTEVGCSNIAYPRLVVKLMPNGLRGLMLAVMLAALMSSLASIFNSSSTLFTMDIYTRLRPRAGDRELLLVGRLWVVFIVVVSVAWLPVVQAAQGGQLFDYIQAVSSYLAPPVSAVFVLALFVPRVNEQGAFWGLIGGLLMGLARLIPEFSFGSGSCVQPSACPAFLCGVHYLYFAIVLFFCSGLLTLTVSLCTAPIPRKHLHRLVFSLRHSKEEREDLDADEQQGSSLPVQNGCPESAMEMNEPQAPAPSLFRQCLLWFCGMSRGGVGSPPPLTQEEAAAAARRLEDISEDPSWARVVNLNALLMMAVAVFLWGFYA
Kind of experiment: Inhibition of human SGLT2 expressed in CHO cells assessed as reduction of [14C]-labeled AMG after 2 hrs by liquid scintillation counting. The format is cell-based.

The next experiment has as its system Rattus norvegicus. The experiment can be described thus: Antidiabetic activity in Sprague-Dawley rat assessed as induction of urinary glucose excretion per 200 gram of body weight at 1 mg/kg, po. The format is functional, Urine.

Usually IC50 stands for the concentration that gives 50% inhibition.

SMILES strings stand for the structures.

With `CCOc1ccc(Cc2cc3c(cc2Cl)OCCOC[C@H]2O[C@@H]3[C@H](O)[C@@H](O)[C@@H]2O)cc1`, the concentration for half-maximal inhibition (IC50) in experiment [1] worked out at 1.34 nM.

On to `CCOc1ccc(Cc2cc3c(cc2Cl)OCCCOC[C@H]2O[C@@H]3[C@H](O)[C@@H](O)[C@@H]2O)cc1`, for which the IC50 in experiment [1] was 2.95 nM.

As to `CCOc1ccc(Cc2cc3c(cc2Cl)OCCCCCOC[C@H]2O[C@@H]3[C@H](O)[C@@H](O)[C@@H]2O)cc1`, in the experiment with Rattus norvegicus, the Activity came out at 226 mg.

For `CCc1ccc(Cc2cc3c(cc2Cl)OCCCOC[C@H]2O[C@@H]3[C@H](O)[C@@H](O)[C@@H]2O)cc1`, in experiment [1], the IC50 is 1.59 nM.

Turning to `CCc1ccc(Cc2cc3c(cc2Cl)OCCCCCOC[C@H]2O[C@@H]3[C@H](O)[C@@H](O)[C@@H]2O)cc1`, the Activity in the experiment with Rattus norvegicus is 116 mg.

Take `CCOc1ccc(Cc2cc([C@@H]3O[C@H](CO)[C@@H](O)[C@H](O)[C@H]3O)ccc2Cl)cc1` [DAPAGLIFLOZIN]: in the experiment with Rattus norvegicus, the Activity came out at 1648 mg.
